Data reported in ChEMBL document CHEMBL1201862, “PubChem BioAssay data set” (2004).
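Each compound was tested at five concentrations against cells in 96-well plates for 48 hours. The concentration for 50% growth inhibition is given as GI50.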 The source made the active and inactive calls. Rule as the data show it: active = GI50 up to about 1.1 µM and inactive = higher.

Key:
Test in all cases: growth of human tumour cells (NCI), 48 h
MDA-MB-231 = system: MDA-MB-231
SW-620 = system: SW-620
LOX IMVI = system: LOX IMVI
OVCAR-8 = system: OVCAR-8
UACC-257 = system: UACC-257
SF-295 = system: SF-295
T47D = system: T47D
SNB-75 = system: SNB-75
Hs-578T = system: Hs-578T
EKVX = system: EKVX
HT-29 = system: HT-29
SK-MEL-2 = system: SK-MEL-2
ACHN = system: ACHN
PC-3 = system: PC-3
SF-268 = system: SF-268
NCI-H522 = system: NCI-H522
HOP-92 = system: HOP-92
HCT-15 = system: HCT-15
COLO 205 = system: COLO 205
OVCAR-4 = system: OVCAR-4
UACC-62 = system: UACC-62
NCI/ADR-RES = system: NCI/ADR-RES
SN12C = system: SN12C
IGROV-1 = system: IGROV-1
SK-MEL-5 = system: SK-MEL-5
SR = system: SR
A549 = system: A549
OVCAR-3 = system: OVCAR-3
SK-OV-3 = system: SK-OV-3
HOP-62 = system: HOP-62
Malme-3M = system: Malme-3M
NCI-H460 = system: NCI-H460
M14 = system: M14
RXF 393 = system: RXF 393
RPMI-8226 = system: RPMI-8226
HL-60 = system: HL-60
NCI-H226 = system: NCI-H226
MCF7 = system: MCF7
CCRF-CEM = system: CCRF-CEM
U-251 = system: U-251
SK-MEL-28 = system: SK-MEL-28
K562 = system: K562
A498 = system: A498
786-0 = system: 786-0
MDA-MB-435 = system: MDA-MB-435
BT-549 = system: BT-549
UO-31 = system: UO-31
OVCAR-5 = system: OVCAR-5
HCC 2998 = system: HCC 2998
MDA-N = system: MDA-N
TK-10 = system: TK-10
MOLT-4 = system: MOLT-4
HCT-116 = system: HCT-116
CAKI-1 = system: CAKI-1
SNB-19 = system: SNB-19
NCI-H23 = system: NCI-H23
SF-539 = system: SF-539
DU-145 = system: DU-145
KM12 = system: KM12

Measured: GI50

c1cc2nnc1SCCSCCSCCSc1ccc(nn1)SCCSCCSCCS2
inactive: MDA-MB-231 > 100 µM | SW-620 > 100 µM | LOX IMVI > 100 µM | OVCAR-8 > 100 µM | UACC-257 > 100 µM | SF-295 > 100 µM | T47D > 100 µM | SNB-75 45.7 µM | Hs-578T 64.7 µM | EKVX > 100 µM | HT-29 > 100 µM | SK-MEL-2 > 100 µM | ACHN > 100 µM | PC-3 > 100 µM | SF-268 > 100 µM | NCI-H522 > 100 µM | HOP-92 57.4 µM | COLO 205 > 100 µM | OVCAR-4 > 100 µM | UACC-62 > 100 µM | NCI/ADR-RES > 100 µM | SN12C > 100 µM | IGROV-1 > 100 µM | SK-MEL-5 > 100 µM | SR > 100 µM | A549 > 100 µM | OVCAR-3 > 100 µM | SK-OV-3 > 100 µM | HOP-62 44.9 µM | Malme-3M > 100 µM | NCI-H460 > 100 µM | M14 > 100 µM
> 100 µM: HCT-15

O=C(OCc1ccccc1)C(Cc1ccc(OCc2ccccc2)cn1)NC(=O)C(F)(F)F (configuration not stated)
46.3 µM: HCT-15
inactive: RXF 393 > 100 µM | MDA-MB-231 > 100 µM | SW-620 > 100 µM | LOX IMVI 92.3 µM | RPMI-8226 92.5 µM | HL-60 56.2 µM | OVCAR-8 > 100 µM | NCI-H226 > 100 µM | MCF7 > 10 µM | UACC-257 > 100 µM | CCRF-CEM > 10 µM | U-251 72.3 µM | SK-MEL-28 > 100 µM | K562 42.8 µM | SF-295 > 100 µM | A498 > 100 µM | SNB-75 3.01 µM | 786-0 > 100 µM | Hs-578T > 100 µM | MDA-MB-435 92.9 µM | BT-549 > 100 µM | EKVX > 100 µM | HT-29 57.9 µM | UO-31 65.5 µM | OVCAR-5 > 100 µM | ACHN > 100 µM | PC-3 > 100 µM | SF-268 98.2 µM | NCI-H522 79.8 µM | HOP-92 > 100 µM | HCC 2998 > 100 µM | COLO 205 27.4 µM | OVCAR-4 > 100 µM | MDA-N > 100 µM | TK-10 > 100 µM | MOLT-4 33.7 µM | HCT-116 > 100 µM | NCI/ADR-RES > 100 µM | SN12C > 100 µM | IGROV-1 > 100 µM | CAKI-1 > 100 µM | SK-MEL-5 35.4 µM | SNB-19 > 100 µM | NCI-H23 86.9 µM | SR 86.9 µM | A549 62.8 µM | OVCAR-3 71.3 µM | SF-539 > 100 µM | DU-145 > 100 µM | HOP-62 > 100 µM | Malme-3M > 100 µM | NCI-H460 > 100 µM | KM12 > 100 µM
